Read-outs that look alike come from different tables or passages of the source.

Our source for the ring closure, isolated yield and ring closure, yield after HPLC values is US20250282795A1, “EGFR Inhibitors in cancer treatment” (Celyn Therapeutics, Inc., priority 2022, published 2025).

The conditions of data set [1]: DCM.
The mark [2] stands for this setting: rcm bond, 14-membered ring, Grubbs II (12 mol%), 10.0 mM, 50.0 °C.

`COc1c(F)cccc1Nc1c2[nH]c3c1C(=O)NCC3CC=CCCOc1cnccc1-2` (stereo not drawn) returned a ring closure, isolated yield in data set [1] (from C=CCCOc1cnccc1-c1[nH]c2c(c1Nc1cccc(F)c1OC)C(=O)NCC2CC=C, rcm bond, 12-membered ring, Grubbs II (15 mol%), 10.0 mM, 50.0 °C) of 71%.
In data set [1] (amine bond, 14-membered ring, STAB/DIEA, 190.0 mM, 25.0 °C), “19-[(3-Fluoro-2-methoxyphenyl)amino]-7,8,10,11,12,12a,13,14-octahydro-6H-7,9-methano-16,18-methenodipyrido[3,4-b:4′,3′-f][1,5,11]oxadiazacyclotetradecin-15(17H)-one” registered a ring closure, isolated yield of 36%.
Under “amide bond, 18-membered ring, EDCI, DMF, 43.0 mM, 25.0 °C”, “29-(3-Fluoro-2-methoxyanilino)-18,21-dioxa-1,6,10,15,24-pentaazapentacyclo[22.2.2.1^8,110^4,9.0^12,17]nonacosa-8,11(29),12(17),13,15-pentaene-2,7-dione” returned a ring closure, yield after HPLC of 16%.
“(13E)-23-[(3-Fluoro-2-methoxyphenyl)amino]-8,11-dioxa-5,18,22-tniazatetracyclo[18.2.1.0^2,7.0^16′2]tricosa-1(23),2,4,6,13,20-hexaen-19-one” returned a ring closure, isolated yield in data set [1] (setting [2]) of 16%.
Still for that read-out and setting: in the case of “(13Z)-23-[(3-fluoro-2-methoxyphenyl)amino]-8,11-dioxa-5,18,22-triazatetracyclo[18.2.10^2,7.0^16,21]tricosa-1(23),2,4,6,13,20-hexaen-19-one” it was 4%.
For the molecule “(19E)-28-[(3-Fluoro-2-methoxyphenyl)amino]-3,22-dioxa-6,11,15-triazapentacyclo[21.3.1^10,13.0^4,9.0^12,17]octacosa-1(27),4,6,8,10(28),12,19,23,25-nonaen-14-one”, the ring closure, yield after HPLC (rcm bond, 16-membered ring, Hoveyda-Grubbs II (10 mol%), DCM, 3.6 mM) amounted to 20%.
